# Data published in ChEMBL document CHEMBL1201862, “PubChem BioAssay data set” (2004).
# Counter-ions that a name gives are not always drawn. Active and inactive are the calls of the source.
# Key:
# [1] = biological target: Voltage-gated inwardly rectifying potassium channel KCNH2 (Homo sapiens, UniProt Q12809); settings: Potency;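 further: confirmatory quantitative high-throughput screen measuring inhibition of hERG channel activity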
# Trypsin = Trypsin (Sus scrofa, UniProt P00761); test: trypsin protease activity blockade – biochemical, quenched peptide fluorescence, cherry-pick, selectivity assay for Rce1 protease inhibitor project, dose response (AID 488789)
# Sequence of Trypsin (P00761 whole entry): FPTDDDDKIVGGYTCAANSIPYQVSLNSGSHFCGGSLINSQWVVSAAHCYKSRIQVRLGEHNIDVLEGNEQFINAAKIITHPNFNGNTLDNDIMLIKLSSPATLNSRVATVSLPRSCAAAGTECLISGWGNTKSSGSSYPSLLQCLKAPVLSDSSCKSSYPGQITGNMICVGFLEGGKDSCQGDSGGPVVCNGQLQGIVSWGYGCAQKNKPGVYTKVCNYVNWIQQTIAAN
# CAAX prenyl protease 2 [2] = biological target: T1, CAAX prenyl protease 2 (Saccharomyces cerevisiae S288c, UniProt Q03530); type: biochemical
# T1 sequence (Q03530 whole entry): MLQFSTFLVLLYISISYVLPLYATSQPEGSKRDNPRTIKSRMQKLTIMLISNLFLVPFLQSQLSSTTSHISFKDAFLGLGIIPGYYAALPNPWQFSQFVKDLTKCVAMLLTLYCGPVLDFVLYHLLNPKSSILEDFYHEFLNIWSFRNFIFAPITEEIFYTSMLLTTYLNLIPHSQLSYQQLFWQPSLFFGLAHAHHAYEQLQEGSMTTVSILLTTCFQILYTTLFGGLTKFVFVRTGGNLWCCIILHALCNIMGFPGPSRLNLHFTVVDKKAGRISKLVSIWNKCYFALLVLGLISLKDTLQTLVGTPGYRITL
# CAAX prenyl protease 2 [3] = biological target: CAAX prenyl protease 2 (Homo sapiens, UniProt Q9Y256); test: inhibition of Ras-converting CAAX protease Rce1 – biochemical, yeast membranes, quenched-peptide fluorescence, cherry-pick, dose response (AID 588849)
# Sequence of CAAX prenyl protease 2 (Homo sapiens, UniProt Q9Y256) (Q9Y256 whole entry): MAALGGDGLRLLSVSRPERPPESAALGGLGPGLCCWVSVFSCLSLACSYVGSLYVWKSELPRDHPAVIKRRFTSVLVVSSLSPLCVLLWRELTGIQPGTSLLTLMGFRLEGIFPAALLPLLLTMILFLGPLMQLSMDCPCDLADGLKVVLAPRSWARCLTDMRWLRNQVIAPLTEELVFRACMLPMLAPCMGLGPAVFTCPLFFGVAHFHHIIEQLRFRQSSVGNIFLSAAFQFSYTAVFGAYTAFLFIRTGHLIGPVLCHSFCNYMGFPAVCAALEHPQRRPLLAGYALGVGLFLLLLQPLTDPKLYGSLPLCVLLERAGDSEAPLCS
# Beta-galactosidase = Beta-galactosidase (Escherichia coli, UniProt Q8VNN2); test: PubChem AID 485352; type: functional
# Sequence of Beta-galactosidase (Q8VNN2 whole entry): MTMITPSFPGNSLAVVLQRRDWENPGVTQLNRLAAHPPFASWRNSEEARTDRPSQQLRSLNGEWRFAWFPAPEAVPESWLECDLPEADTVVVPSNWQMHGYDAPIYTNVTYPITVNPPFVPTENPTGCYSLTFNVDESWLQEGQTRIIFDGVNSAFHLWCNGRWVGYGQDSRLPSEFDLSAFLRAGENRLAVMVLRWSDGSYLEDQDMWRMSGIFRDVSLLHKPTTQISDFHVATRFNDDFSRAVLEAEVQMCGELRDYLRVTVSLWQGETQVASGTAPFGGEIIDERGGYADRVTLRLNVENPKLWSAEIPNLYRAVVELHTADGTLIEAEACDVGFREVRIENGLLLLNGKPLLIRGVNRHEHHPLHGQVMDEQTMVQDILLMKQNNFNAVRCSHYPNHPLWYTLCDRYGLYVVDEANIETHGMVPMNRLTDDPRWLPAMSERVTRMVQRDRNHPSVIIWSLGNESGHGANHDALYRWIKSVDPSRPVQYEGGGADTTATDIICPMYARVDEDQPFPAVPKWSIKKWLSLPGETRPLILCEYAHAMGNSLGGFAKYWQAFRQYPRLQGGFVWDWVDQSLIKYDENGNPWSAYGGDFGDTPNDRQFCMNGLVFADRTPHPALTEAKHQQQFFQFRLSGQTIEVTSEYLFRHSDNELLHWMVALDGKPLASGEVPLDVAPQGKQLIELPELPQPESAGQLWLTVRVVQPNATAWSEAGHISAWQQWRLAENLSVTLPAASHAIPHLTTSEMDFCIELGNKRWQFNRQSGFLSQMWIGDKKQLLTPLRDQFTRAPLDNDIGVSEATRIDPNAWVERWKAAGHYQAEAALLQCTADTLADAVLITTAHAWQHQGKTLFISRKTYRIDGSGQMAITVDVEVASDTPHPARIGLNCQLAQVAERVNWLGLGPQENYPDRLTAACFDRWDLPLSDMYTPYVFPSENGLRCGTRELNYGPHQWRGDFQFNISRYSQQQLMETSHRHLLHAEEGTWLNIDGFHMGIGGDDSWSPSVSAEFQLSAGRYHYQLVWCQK
# [4] = biological target: T2, Type-1 angiotensin II receptor (Homo sapiens, UniProt P30556); test: antagonism of angiotensin II type 1 receptor – cell-based, uHTS hits, selectivity assay for APJ receptor antagonist project, dose response (AID 463214); type: functional;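 further: antagonist potency against angiotensin II stimulated AT1 response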
# T2 sequence (P30556 whole entry): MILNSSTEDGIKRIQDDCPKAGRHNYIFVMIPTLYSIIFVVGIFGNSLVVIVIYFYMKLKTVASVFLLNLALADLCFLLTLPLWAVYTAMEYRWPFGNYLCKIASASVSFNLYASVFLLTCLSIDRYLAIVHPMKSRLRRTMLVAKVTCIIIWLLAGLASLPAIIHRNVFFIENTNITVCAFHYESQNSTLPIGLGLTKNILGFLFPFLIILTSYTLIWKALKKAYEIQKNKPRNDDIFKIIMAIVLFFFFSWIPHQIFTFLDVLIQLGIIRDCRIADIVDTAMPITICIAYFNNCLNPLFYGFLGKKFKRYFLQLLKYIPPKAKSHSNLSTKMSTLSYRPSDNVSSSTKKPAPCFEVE
# Protein skinhead-1 = biological target: T3, Protein skinhead-1 (Caenorhabditis elegans, UniProt P34707); type: functional
# T3 sequence (P34707 whole entry): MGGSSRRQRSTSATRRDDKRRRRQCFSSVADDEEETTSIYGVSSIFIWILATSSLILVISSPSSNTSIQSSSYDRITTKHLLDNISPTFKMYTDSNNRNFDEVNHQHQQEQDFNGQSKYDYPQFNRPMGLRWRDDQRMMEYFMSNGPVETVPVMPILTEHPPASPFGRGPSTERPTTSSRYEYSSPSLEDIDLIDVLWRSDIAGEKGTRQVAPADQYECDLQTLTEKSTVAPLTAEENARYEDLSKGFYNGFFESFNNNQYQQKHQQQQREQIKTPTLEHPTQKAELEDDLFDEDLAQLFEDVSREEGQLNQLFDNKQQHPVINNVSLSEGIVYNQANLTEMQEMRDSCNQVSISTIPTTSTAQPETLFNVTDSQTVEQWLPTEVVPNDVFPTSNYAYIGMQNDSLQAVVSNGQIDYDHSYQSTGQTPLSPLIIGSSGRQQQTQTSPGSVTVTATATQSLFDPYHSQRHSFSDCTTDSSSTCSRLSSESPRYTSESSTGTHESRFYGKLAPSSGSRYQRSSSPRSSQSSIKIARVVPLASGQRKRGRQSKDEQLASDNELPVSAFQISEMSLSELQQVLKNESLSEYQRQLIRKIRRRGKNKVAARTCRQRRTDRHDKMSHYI
# Vero [5] = test: cells; type: functional, cell-based; settings: Chlorocebus sabaeus
# Hexokinase-1 = biological target: T4, Hexokinase-1 (Homo sapiens, UniProt P19367); test: SAR analysis of small molecule inhibitors of hexokinase domain containing I (HKDC1) in the hexokinase 1 selectivity assay. [Related pubchem assays (depositor defined):AID493160, AID493190]; type: functional
# T4 sequence (P19367 whole entry): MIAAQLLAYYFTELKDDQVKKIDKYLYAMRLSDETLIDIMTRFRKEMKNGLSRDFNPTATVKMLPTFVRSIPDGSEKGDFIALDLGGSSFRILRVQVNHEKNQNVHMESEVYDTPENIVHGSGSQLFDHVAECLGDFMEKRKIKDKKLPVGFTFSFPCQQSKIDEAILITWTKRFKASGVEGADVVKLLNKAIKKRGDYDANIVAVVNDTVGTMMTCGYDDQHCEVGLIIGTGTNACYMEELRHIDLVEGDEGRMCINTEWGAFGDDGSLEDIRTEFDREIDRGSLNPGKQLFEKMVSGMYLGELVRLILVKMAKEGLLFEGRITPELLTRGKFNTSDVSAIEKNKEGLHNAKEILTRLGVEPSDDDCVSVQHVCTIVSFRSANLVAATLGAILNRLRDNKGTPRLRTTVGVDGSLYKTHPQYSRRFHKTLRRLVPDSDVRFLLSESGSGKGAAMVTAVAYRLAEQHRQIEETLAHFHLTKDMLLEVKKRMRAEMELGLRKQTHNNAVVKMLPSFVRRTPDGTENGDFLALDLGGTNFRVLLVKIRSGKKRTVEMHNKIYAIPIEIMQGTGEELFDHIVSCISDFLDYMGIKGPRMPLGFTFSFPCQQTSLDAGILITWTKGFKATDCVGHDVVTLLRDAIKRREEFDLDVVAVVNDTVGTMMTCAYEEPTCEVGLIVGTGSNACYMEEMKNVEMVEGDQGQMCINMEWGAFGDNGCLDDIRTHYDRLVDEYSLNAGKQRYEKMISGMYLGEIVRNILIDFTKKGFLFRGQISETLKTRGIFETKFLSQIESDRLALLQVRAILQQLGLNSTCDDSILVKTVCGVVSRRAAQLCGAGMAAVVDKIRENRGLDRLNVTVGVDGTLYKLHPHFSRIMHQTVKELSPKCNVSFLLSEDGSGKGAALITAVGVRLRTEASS
# Hexokinase HKDC1 = biological target: T5, Hexokinase HKDC1 (Homo sapiens, UniProt Q2TB90); test: SAR analysis of small molecule inhibitors of hexokinase domain containing I (HKDC1). [Related pubchem assays (depositor defined):AID493160, AID493190]; type: functional
# T5 sequence (Q2TB90 whole entry): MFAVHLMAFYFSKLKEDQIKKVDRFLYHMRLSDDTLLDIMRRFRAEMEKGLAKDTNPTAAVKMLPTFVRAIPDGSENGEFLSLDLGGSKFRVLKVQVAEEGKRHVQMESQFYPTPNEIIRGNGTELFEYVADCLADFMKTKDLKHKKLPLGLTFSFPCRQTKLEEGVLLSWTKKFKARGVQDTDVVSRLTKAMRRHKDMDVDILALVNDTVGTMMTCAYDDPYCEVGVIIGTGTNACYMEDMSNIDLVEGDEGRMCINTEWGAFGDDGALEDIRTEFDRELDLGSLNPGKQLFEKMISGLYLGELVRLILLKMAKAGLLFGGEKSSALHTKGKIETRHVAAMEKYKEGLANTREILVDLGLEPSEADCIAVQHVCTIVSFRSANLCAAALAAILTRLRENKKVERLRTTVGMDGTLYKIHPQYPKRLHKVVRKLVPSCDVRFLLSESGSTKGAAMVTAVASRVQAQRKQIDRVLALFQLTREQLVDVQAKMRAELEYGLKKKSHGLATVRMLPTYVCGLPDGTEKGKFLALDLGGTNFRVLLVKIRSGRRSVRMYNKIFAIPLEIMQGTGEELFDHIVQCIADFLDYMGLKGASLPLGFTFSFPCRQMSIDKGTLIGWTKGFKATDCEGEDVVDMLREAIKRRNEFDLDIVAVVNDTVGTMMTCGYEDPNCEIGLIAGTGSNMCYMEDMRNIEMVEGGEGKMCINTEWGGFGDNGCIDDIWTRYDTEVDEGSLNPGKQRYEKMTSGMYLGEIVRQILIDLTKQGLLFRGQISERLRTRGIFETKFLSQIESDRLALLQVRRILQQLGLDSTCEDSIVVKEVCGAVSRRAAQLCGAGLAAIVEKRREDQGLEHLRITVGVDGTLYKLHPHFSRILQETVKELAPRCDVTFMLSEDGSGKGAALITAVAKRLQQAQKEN
# Escherichia coli [6] = test: microbe, parasite or virus in culture
# [7] = biological target: Dual specificity tyrosine-phosphorylation-regulated kinase 1A (Rattus norvegicus, UniProt Q63470); type: biochemical, Homo sapiens
# [8] = biological target: T6, RNA-binding protein pos-1 (Caenorhabditis elegans, UniProt G5EF15); test: disruptors of C. elegans POS-1 RNA interaction – biochemical, fluorescence polarization, dose response (AID 1964);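 further: purified POS-1 fused to maltose binding protein made in E. coli; potency of compounds blocking POS-1 binding to fluorescent RNA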
# T6 sequence (G5EF15 whole entry): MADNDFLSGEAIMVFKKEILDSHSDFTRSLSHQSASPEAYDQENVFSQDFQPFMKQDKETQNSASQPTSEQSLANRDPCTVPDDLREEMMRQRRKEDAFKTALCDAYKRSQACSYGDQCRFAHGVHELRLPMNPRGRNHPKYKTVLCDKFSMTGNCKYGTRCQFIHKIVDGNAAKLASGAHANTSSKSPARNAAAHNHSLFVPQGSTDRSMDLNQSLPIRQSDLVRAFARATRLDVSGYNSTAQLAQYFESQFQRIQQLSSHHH
# [9] = biological target: T7, Zinc finger protein mex-5 (Caenorhabditis elegans, UniProt Q9XUB2); test: potency of MEX-5 RNA-binding blockers – biochemical, C. elegans, fluorescence polarization, dose response (AID 1960)
# T7 sequence (Q9XUB2 whole entry): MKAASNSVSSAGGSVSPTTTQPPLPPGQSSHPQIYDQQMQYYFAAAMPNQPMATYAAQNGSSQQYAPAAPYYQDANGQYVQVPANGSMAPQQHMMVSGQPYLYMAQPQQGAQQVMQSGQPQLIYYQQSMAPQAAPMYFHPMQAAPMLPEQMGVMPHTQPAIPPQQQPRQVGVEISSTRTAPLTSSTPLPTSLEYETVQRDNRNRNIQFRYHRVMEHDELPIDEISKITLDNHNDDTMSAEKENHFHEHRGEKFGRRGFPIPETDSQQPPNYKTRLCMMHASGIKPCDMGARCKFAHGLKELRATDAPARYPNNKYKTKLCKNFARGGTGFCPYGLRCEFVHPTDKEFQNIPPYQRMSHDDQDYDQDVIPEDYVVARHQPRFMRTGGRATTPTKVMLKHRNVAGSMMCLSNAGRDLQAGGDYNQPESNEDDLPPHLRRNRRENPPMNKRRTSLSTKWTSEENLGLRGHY
# [10] = NIH-3T3 fibroblast cytotoxicity, dose response, cytotoxicity control, cell-based, fluorescence, Alamar Blue, secondary assay (AID 2327); type: functional;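 further: NIH-3T3 mouse fibroblasts cultured with fluconazole at 8 µg/mL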
# BJ [11] = test: BJ-TERT fibroblast viability loss – cell-based, RAS-independent, luminescence, dose response (AID 1933); type: functional; settings: Homo sapiens
# Vero [12] = test: cells; type: functional; settings: Chlorocebus sabaeus
# Nonstructural protein 1 = Nonstructural protein 1 (Influenza A virus, UniProt Q194T2); type: functional, Influenza A virus (A/California/07/2009(H1N1))
# Sequence of Nonstructural protein 1 (Q194T2 whole entry): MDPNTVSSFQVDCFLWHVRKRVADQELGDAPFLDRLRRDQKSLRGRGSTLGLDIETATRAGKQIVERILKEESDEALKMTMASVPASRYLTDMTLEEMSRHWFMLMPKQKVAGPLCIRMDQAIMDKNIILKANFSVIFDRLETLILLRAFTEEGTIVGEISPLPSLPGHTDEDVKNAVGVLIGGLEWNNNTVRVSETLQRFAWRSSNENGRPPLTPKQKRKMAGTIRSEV
# [13] = DRD fibroblast viability loss – cell-based, non-viral oncogenic, luminescence, dose response (AID 1934); type: functional; settings: Homo sapiens
# INS1 = test: INS-1E survival protection against cytokine death – cell-based, luminescence, retest, dose response (AID 449756); type: functional; settings: Rattus norvegicus;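 further: cell death triggered by IL-1 beta plus TNF-alpha plus IFN-gamma mixture; protective hits raise ATP signal compared with cytokine alone wells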
# BJ [14] = test: BJ-TERT-LT-ST fibroblast viability loss – cell-based, RAS-independent, luminescence, dose response (AID 1935); type: functional; settings: Homo sapiens;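 further: BJ fibroblasts immortalized with TERT plus LT and ST oncogenes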
# BJ [15] = test: cells; type: functional, cell-based; settings: Homo sapiens
# [16] = fluconazole-exposed Candida albicans growth modulators – fluorescence, retest, confirmation (AID 2467); type: functional, cell-based
# Escherichia coli [17] = test: microbe, parasite or virus in culture; remark: listed apart in the source
# [18] = A cytotoxicity screen of small molecule inhibitors of the PhoP region in Salmonella typhi identified in the primary screen. [Related pubchem assays: 1850, 1864, 1985 ]; type: functional
# Sequence of Voltage-gated inwardly rectifying potassium channel KCNH2 (Q12809 whole entry): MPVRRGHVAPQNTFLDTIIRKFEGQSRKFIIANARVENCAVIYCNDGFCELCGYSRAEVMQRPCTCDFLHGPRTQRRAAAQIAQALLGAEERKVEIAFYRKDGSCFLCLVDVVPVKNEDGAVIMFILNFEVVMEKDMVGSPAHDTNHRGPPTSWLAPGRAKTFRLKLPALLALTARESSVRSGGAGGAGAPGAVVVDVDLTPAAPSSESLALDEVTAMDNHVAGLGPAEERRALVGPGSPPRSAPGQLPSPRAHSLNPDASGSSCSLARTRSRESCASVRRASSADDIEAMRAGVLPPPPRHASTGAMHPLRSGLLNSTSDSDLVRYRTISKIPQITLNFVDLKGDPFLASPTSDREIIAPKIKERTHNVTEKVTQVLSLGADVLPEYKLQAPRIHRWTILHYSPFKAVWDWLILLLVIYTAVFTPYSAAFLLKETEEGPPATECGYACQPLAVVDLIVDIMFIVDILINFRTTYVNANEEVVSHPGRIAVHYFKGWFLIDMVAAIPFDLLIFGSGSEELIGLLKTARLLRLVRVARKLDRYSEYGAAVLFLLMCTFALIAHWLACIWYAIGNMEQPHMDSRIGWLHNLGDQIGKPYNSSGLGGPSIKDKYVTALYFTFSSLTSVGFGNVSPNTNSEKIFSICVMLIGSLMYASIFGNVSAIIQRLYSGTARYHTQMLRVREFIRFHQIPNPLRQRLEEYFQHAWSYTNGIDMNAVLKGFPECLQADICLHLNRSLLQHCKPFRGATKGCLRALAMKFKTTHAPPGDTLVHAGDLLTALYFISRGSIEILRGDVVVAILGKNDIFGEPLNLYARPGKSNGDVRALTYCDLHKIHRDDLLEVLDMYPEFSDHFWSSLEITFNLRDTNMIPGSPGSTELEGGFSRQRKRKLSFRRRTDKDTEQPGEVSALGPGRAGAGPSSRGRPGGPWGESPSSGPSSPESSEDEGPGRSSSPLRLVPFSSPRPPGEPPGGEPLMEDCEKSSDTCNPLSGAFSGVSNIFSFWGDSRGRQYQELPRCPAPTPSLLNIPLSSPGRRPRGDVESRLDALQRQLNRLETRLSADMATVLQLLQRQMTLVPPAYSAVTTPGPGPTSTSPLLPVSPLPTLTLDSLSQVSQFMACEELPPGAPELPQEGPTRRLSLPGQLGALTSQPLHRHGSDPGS
smiles,measurement,setting,value
CN1CCN(CC/C=C2/c3ccccc3Sc3ccc(S(=O)(=O)N(C)C)cc32)CC1,AC50,[1],2.51 µM (inconclusive)
COc1ccc(-n2nc(C(=O)NCC(=O)NCc3ccc(F)cc3)c3ccccc3c2=O)cc1,AC50,Trypsin,9.62 µM (active)
same,AC50,CAAX prenyl protease 2 [2],5.21 µM (active)
same,AC50,CAAX prenyl protease 2 [3],9.42 µM (active)
Cc1ccccc1NC(=O)CCC(=O)OCC(=O)c1cccc([N+](=O)[O-])c1,EC50,Beta-galactosidase,> 40 µM (inactive)
same,IC50,[4],33.6 µM (not active)
same,IC50,Protein skinhead-1,> 100 µM (inactive)
Cc1ccc2[nH]c(CN3CCC(CO)(CC4CCCCO4)CC3)c(C)c2c1 (stereo not drawn),IC50,Vero [5],> 25 µM (active)
O=C(COC(=O)c1cccnc1Cl)c1ccc(Cl)cc1Cl,EC50,Beta-galactosidase,> 40 µM (inactive)
same,IC50,[4],35.4 µM (not active)
Cc1ccc(/C=C/c2nc3ccccc3c(=O)n2CCc2ccccc2)cc1,IC50,Hexokinase-1,> 80 µM (inactive)
same,IC50,Hexokinase HKDC1,> 80 µM (inactive)
Cc1ccc(S(=O)(=O)Cc2cn3cccnc3n2)cc1,AC50,Trypsin,25.1 µM (active)
same,AC50,CAAX prenyl protease 2 [2],16.2 µM (active)
same,AC50,CAAX prenyl protease 2 [3],34.3 µM (active)
CCc1nc2ccccc2c(C(=O)OC2CCOC2=O)c1C (stereo not drawn),AC50,Escherichia coli [6],42.9 µM (active)
Cc1c(C(=O)O)cccc1-n1c(C)cc(/C=N/Nc2ccc([N+](=O)[O-])cn2)c1C,AC50,[7],6.79 µM (active)
same,EC50,[8],> 300 µM (not active)
same,EC50,[9],50.2 µM (active)
C/C(=N\NC(=O)c1cc(-c2cccs2)nc2ccccc12)c1ccccn1,EC50,[10],2.71 µM (inconclusive)
same,EC50,BJ [11],1.3 µM (active)
same,CC50,Vero [12],1.62 µM (active)
same,IC50,Nonstructural protein 1,4.52 µM (active)
same,EC50,[13],1.41 µM (active)
same,AC50,INS1,0.366 µM (active)
same,EC50,BJ [14],1.14 µM (active)
same,EC50,BJ [15],2.12 µM (active)
same,IC50,Vero [5],> 25 µM (active)
same,EC50,[16],1.19 µM (active)
O=C1OCCN1/N=C/c1ccc([N+](=O)[O-])o1 [FURAZOLIDONE],AC50,Escherichia coli [17],24.4 µM (active)
same,EC50,[18],> 50 µM (active)
same,AC50,Escherichia coli [6],17.8 µM (active)
CCCN1CCC[C@@H]2Cc3n[nH]cc3C[C@H]21 [QUINPIROLE HYDROCHLORIDE],AC50,[1],11.2 µM (inconclusive)
